From patent publication US20060037085A1, “Animal model for fetal alcohol syndrome and methods of treatment” (priority 2004, published 2006)
Values joined by “and” are separate entries in the source; they are usually repeats but may differ in a detail not shown here. Equal values may be shown once. Read-outs that look alike come from different tables or passages of the source. Marks after values point to notes of the source that are not given here.

Legend:
[1] = test system: Sox17, Pax6 and VegT; experiment: Animal cap explant assay, RT-PCR of gut developmental genes; type: cell-based, Xenopus laevis; conditions: alcohol
From the text: (§1) Animal cap explant assay. […] Total RNA was extracted from animal caps or whole embryos using TRIZOL reagent (Invitrogen). The total RNA was reverse transcribed using the Superscript system (Invitrogen), and the first strand cDNA of the target gene amplified by PCR.

[2] = test system: Xenopus laevis embryos
Description: (§2) Morphological measurements of microcephaly and growth retardation.
Vitamin C treatment. Embryos at stage 13 (initial neural plate stage) were collected and divided into groups, each containing 15-20 embryos and incubated in a plastic petri dish containing MMR medium as stated above. Vitamin C, having a concentration of 100 μM, was added either concomitantly, 2 hours before, or 2 hours after the initiation of a 12-hour alcohol exposure. The tadpoles were fixed and measurements were made as stated above.

[3] = test system: Xenopus laevis embryos; remark: listed apart in the source
Description: Morphological measurements of microcephaly and growth retardation. The tadpoles were then fixed in 2% paraformaldehyde in 30% MMR, and their morphologies examined by light microscopy and photographs were taken at a fixed magnification for body length and head width measurements. The following criteria were recorded: (1) the number of normal/deformed/dead embryos; (2) length of the body measured between the tip of the jaw and the tip of the tail, and (3) width between the eyes measured at the widest level of that of the tadpoles.
In each experiment, embryos at 2-cell stage were collected and microinjected with the expression plasmid for either catalase (pCMS-CAT), xPax6 (pCS2+xPax6) or xSox2 (pCS2+xSox2) into each of the two blastomeres. After reaching stage 13, the embryos were divided into groups, each consisting of 20 embryos, which were then incubated in 10 ml of 30% Modified Marc's Ringer (MMR) for 12 hours until stage 22 in the presence or absence of varied concentrations of alcohol as indicated. As alcohol is volatile, the experimental media were replaced with fresh media every 4 hours during the course of alcohol treatment to minimize fluctuations in the alcohol concentration. At stage 22, embryos were transferred to 10 ml of 30% MMR without alcohol and allowed to grow until the control group reached the tadpole stage (stage 40 or 45). The tadpoles were then fixed and examined. Each experiment was repeated at least once with reproducible results.
The injected embryos were allowed to grow to stage 40, and their head size and body length were then compared to that of the control embryos injected with mock plasmid pCS2+ and without alcohol treatment. […] In a separate experiment, 100 pg pCS2+xSox2 or pCS2+ plasmid was injected into animal pole at two-cell stage embryos (n=50) and treated these embryos in 0.6% alcohol under the same conditions as described for Pax6.
As H2O2 is the major ROS produced by fetal alcohol exposure (Ozer et al., 2000), whether eliminating alcohol-induced H2O2 production can prevent microcephaly was examined by the protective effect of catalase. Human catalase was overexpressed in Xenopus embryos by microinjecting the two-cell stage embryos with 100 pg of catalase expression plasmid pCMS-CAT, and then treating them with or without 0.6% alcohol from stage 13 to 22.

[4] = test system: Pax6; conditions: animal caps until stage 22
From the text: (§3) RT-PCR Animal caps were dissected from embryos at stage 8.5 and cultured in 67% Leibovitz's L-15 medium, pH 7.5 in the presence or absence of varied concentration of alcohol until stage 22. Total RNA was extracted from cultured animal caps with Trizol reagent (Invitrogen). Primer sets and PCR conditions for NCAM and Pax6 have been described in our previous reports (Peng, Neurobiol. Dis., 2004; Peng, J. Mol. Biol., 2004). PCR products were subject to electrophoresis on TBE gel and visualized by ethidium bromide staining.
as §1
(§4) The Xenopus animal cap is composed of pluripotent cells that can be induced to form neural, mesodermal, or epidermal tissue, and is a useful tissue to assess the activity of various factors on neural development. Animal caps were treated with varied concentrations of alcohol as indicated.

[5] = test system: NCAM; conditions: animal caps until stage 22
From the text: as §3, §1, §4

[6] = test system: NF-κB; experiment: NF-κB reporter assay (pLuc-NF-κB) in whole embryos; type: in vivo, Xenopus laevis; conditions: 0.6% ethanol, recorded at stage 22
Description: NF-κB reporter assay. NF-κB luciferase reporter plasmid (pLuc-NF-κB) containing IL-6 promoter region with four repeats of NF-κB binding sites was used to measure NF-κB-mediated transcriptional activity (Li, 1997). Embryos at the two-cell stage were injected with pLuc-NF-κB, treated as indicated in the text, harvested, and lysed at stage 22. Protein concentration was determined. The luciferase activities were measured and calculated as relative luciferase activity per mg of protein.
In this embodiment, NF-κB activity was measured in the whole embryo by the reporter construct pLuc-NF-κB, which was injected into embryos at 2-cell stage.

[7] = test system: Xenopus laevis embryos; conditions: for % body length of control / % width between eyes of control / N (normal) tadpoles / def (deformed) tadpoles: Xenopus laevis
Description: Embryo collection and experimental conditions for Xenopus model. […] In each experiment, embryos at the 2-4 cell stage were collected from the dejellied embryos. […] Each group was then incubated in a plastic petri dish containing 10 ml of 30% MMR, with or without ethanol for 12 hours. Embryos were allowed to develop for approximately 48 hours at room temperature (22° C.), until the control group reached tadpole stage (stage 45). The conditions used for producing eye defects (Peng et al, 2004), delayed gut development (Peng), microencephaly (Peng et al), and growth retardation (Peng) are shown in detail in the attached references.
as §2
In a specific embodiment, embryos are exposed to at least about 0.4%, 0.5%, 0.6%, 0.7%, 0.8%, 0.9% or 1% alcohol.
Embryos were exposed to 0.6% ethanol at stage 9, 11, 13, 16, 18, 20, 23, 25 and 40 and were grown until the control “no ethanol” group reached tadpole stage. The morphology of the tadpoles was then examined (Table 2).
To determine the minimum duration required to produce fetal deformations, embryos at stage 13 were exposed to 0.6% of alcohol for 1, 2, 4, 6, 12, 24, 36 or 48 hours.

[8] = test system: Pax6, Otx2, Sox2, Sox3, NCAM, Vent1; experiment: RT-PCR of neural markers (animal caps or embryos); type: cell-based, Xenopus laevis; conditions: animal caps
From the text: as §3, §1, §4

[9] = test system: alcohol-induced ROS production; experiment: ROS measurement (hydrogen peroxide level in embryos); type: in vivo, Xenopus laevis; conditions: 0.6% alcohol, stage 13 to 22, harvested at stage 22
Description: (A) Embryos were pretreated with or without vitamin C two hours before alcohol treatment (0.6%, 12 h, from stage 13 to 22). The embryos were harvested at stage 22 and the hydrogen peroxide level measured by the colorimetric quantitation of hydrogen peroxide method (total hydroperoxides), according to the protocols provided by the manufacturer (BIOXYTECH H202-560 kit, OXIS International, Inc., USA); (B) The NF-κB mediated transcriptional activity was measured using NF-κB luciferase reporter plasmid (pLuc-NF-κB) containing IL-6 promoter region with four repeats of NF-κB binding sites.
ROS measurement. […] At the end of the experiment, embryos were harvested and total ROS content was determined by the calorimetric quantitation of hydrogen peroxide method (total hydroperoxides), following protocols provided by the manufacturer (BIOXYTECH H202-560 kit, OXIS International, Inc. USA).

[10] = pCMS-EGFP vector-injected embryos, 0.6% alcohol stage 13 to 22

CCO [Ethanol, ethanol]
expression of Sox17, Pax6 and VegT [1]: suppressed the expression
dead ([2]; 0.6% EtOH for 12 hours from stage 13, 15 embryos): 2
Alive ([2]; Xenopus laevis, in vivo, 12 h): 13
Body length ([2]; Xenopus laevis, in vivo, 12 h): 9.25 ± 010^b mm
Eye distance ([2]; Xenopus laevis, in vivo, 12 h): 1.63 ± 005^b mm
alive (Total/alive) ([3]; Xenopus laevis, in vivo, 12 h): 40/32
Body length (% of control) [3, 10]: 84 % of control and 83.7 ± 10.1^a % of control
Distance between eyes (% of control) [3, 10]: 81 % of control and 81.3 ± 14^a % of control
frequency of noted microcephaly and growth retardation ([3]; pCS2+ (mock plasmid) injected group, 0.6% alcohol): 52%
suppression of Pax6 expression ([4]; 0.1% alcohol): 25%
suppression of Pax6 expression ([4]; 0.2% alcohol): 50%
suppression of Pax6 expression ([4]; 0.3% (65 mM) alcohol): 90%
reduction of NCAM expression ([5]; 0.1% alcohol): 15%
reduction of NCAM expression ([5]; 0.2% alcohol): 25%
reduction of NCAM expression ([5]; 0.3% alcohol): 50%
reduction of NCAM expression ([5]; 0.4% alcohol): 70%
NF-κB activity in the embryo (luciferase reporter) [6]: increased
dead ([7]; 0.3% ethanol from stage 11 until control reached stage 45, 15 embryos per group): 2
dead ([7]; 0.4% ethanol from stage 11 until control reached stage 45, 15 embryos per group): 1
dead ([7]; 0.5% ethanol from stage 11 until control reached stage 45, 15 embryos per group): 2
mortality, head and body sizes vs control ([7]; 0.6% alcohol, 12-hour exposure, stage 13-22): increased mortality and marked reduction in head and body sizes
dead ([7]; 0.6% ethanol from stage 11 until control reached stage 45, 15 embryos per group): 1
dead ([7]; 0.6% ethanol, initial exposure at Stage 11, until control reached tadpole stage): 3
dead ([7]; 0.6% ethanol, initial exposure at Stage 13, until control reached tadpole stage): 2
dead ([7]; 0.6% ethanol, initial exposure at Stage 16, until control reached tadpole stage): 1
dead ([7]; 0.6% ethanol, initial exposure at Stage 18, until control reached tadpole stage): 1
dead ([7]; 0.6% ethanol, initial exposure at Stage 20, until control reached tadpole stage): 2
dead ([7]; 0.6% ethanol, initial exposure at Stage 23, until control reached tadpole stage): 1
dead ([7]; 1.0% ethanol from stage 11 until control reached stage 45, 15 embryos per group): 3
dead ([7]; 1.5% ethanol from stage 11 until control reached stage 45, 15 embryos per group): 4
dead ([7]; 2.0% ethanol from stage 11 until control reached stage 45, 15 embryos per group): 6
% body length of control ([7]; in vivo, 0.3 %): 95 ± 54%
% width between eyes of control ([7]; in vivo, 0.3 %): 84 ± 15%
N (normal) tadpoles ([7]; in vivo, 0.3 %): 11
def (deformed) tadpoles ([7]; in vivo, 0.3 %): 3
% body length of control ([7]; in vivo, 0.4 %): 90 ± 41%
% width between eyes of control ([7]; in vivo, 0.4 %): 81 ± 11 %
N (normal) tadpoles ([7]; in vivo, 0.4 %): 10
def (deformed) tadpoles ([7]; in vivo, 0.4 %): 4
% body length of control ([7]; in vivo, 0.5 %): 85 ± 57 %
% width between eyes of control ([7]; in vivo, 0.5 %): 75 ± 09 %
N (normal) tadpoles ([7]; in vivo, 0.5 %): 7
def (deformed) tadpoles ([7]; in vivo, 0.5 %): 6
% body length of control ([7]; in vivo, 0.6 %): 74 ± 34 %
% width between eyes of control ([7]; in vivo, 0.6 %): 70 ± 18 %
N (normal) tadpoles ([7]; in vivo, 0.6 %): 5
def (deformed) tadpoles ([7]; in vivo, 0.6 %): 9
% body length of control ([7]; in vivo, 1 %): 70 ± 39 %
% width between eyes of control ([7]; in vivo, 1 %): 69 ± 21 %
N (normal) tadpoles ([7]; in vivo, 1 %): 2
def (deformed) tadpoles ([7]; in vivo, 1 %): 10
% body length of control ([7]; in vivo, 1.5 %): 67 ± 51 %
% width between eyes of control ([7]; in vivo, 1.5 %): 67 ± 17 %
N (normal) tadpoles ([7]; in vivo, 1.5 %): 1
def (deformed) tadpoles ([7]; in vivo, 1.5 %): 10
% body length of control ([7]; in vivo, 2 %): 65 ± 58 %
% width between eyes of control ([7]; in vivo, 2 %): 67 ± 23 %
N (normal) tadpoles ([7]; in vivo, 2 %): 0
def (deformed) tadpoles ([7]; in vivo, 2 %): 9
effect on viability and morphology of the tadpoles ([7]; in vivo): no significant effect in either the viability or the morphology of the tadpoles
teratogenic effect ([7]; in vivo): resistant to the teratogenic effect of alcohol
mortality rate ([7]; stage 40 tadpoles exposed to 0.6% alcohol): 80%
Otx2, Sox2, and Sox3 expression ([8]; alcohol 0.1% to 0.6%): less sensitive to alcohol
expression of the general ventral marker Vent1 ([8]; alcohol): not seriously affected
hydrogen peroxide level in the embryos ([9]; listed as alcohol): significantly augmented
hydrogen peroxide level in the embryos ([9]; listed as ethanol): significantly increased
